Assay results reported in patent US10407467B2, “Polymyxin derivatives and their use in combination therapy together with different antibiotics” (priority 2013, dated 2019).
Bridge positions count the residues as written; N and C are the ends. Square brackets hold non-standard residues; d marks the D form. Peptide text beside a SMILES is read from it. * marks the point of attachment. ξ: configuration not given here. ξβ3hGly(cHex) = NC(CC(=O)*)C1CCCCC1; Thr(3ξ) = CC(O)[C@H](N)C(=O)O; Dab = NCC[C@H](N)C(=O)O

How the values were obtained:
Format in all cases: cell-based
Klebsiella pneumoniae [1] = assay: MIC, sole activity (no second agent); details: in the absence of Rifampicin; strain NCTC-13438
In short: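 Compound tested without a second agent in cation-adjusted MHB, up to four strains per species, inoculum at 0.5 McFarland from colonies grown 18-24 h on Mueller-Hinton agar. Run in duplicate, invalid beyond 2-fold disagreement, lower duplicate or modal repeat value given, expressed relative to Polymyxin B.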

Acinetobacter baumannii = assay: MIC, compound in combination with a second agent (broth microdilution)
In short: (§1)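 Isolated colonies from an 18-24 hour Mueller-Hinton agar plate are suspended to the 0.5 McFarland standard, then tested against 1:1 w/w mixtures of compound and a second antibacterial such as rifampicin. Reported MICs represent total drug (both components).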

Pseudomonas aeruginosa = assay: as above
In short: as §1

Escherichia coli = assay: as above
In short: as §1

Klebsiella pneumoniae [2] = assay: as above
In short: as §1

[3] = 1:1 combination with Aztreonam, total drug concentration
[4] = 1:1 combination with Ciprofloxacin (by row order), total drug concentration
[5] = 1:1 combination with Tigecycline, total drug concentration
[6] = 1:1 combination with Ciprofloxacin, total drug concentration
[7] = 1:1 combination with Vancomycin, total drug concentration
[8] = Ratio of Compound to Rifampicin 1:1, total drug concentration
[9] = Ratio of Compound to Rifampicin 1:3, total drug concentration

CC(C)C[C@@H]1NC(=O)[C@@H](Cc2ccccc2)NC(=O)[C@H](CCN)NC(=O)[C@@H](NC(=O)[C@H](CCN)NC(=O)[C@@H](NC(=O)CC(N)C2CCCCC2)C(C)O)CCNC(=O)[C@H](C(C)O)NC(=O)[C@H](CCN)NC(=O)[C@H](CCN)NC1=O (stereo partly drawn) [Example 10, [3(R,S)-3-Amino-3-cyclohexane-propanoyl]Polymyxin B nonapeptide] ({ξβ3hGly(cHex)}-[Thr(3ξ)][Dab][Dab][Dab][dF]L[Dab][Dab][Thr(3ξ)]; lactam 3-C)
MIC K. pneumoniae NCTC-13438 (Klebsiella pneumoniae [1]): >32 micrograms/mL
MIC A. baumannii ATCC BAA-747 (Acinetobacter baumannii; 1:1 (wt:wt) combination with Rifampicin, MIC = total drug concentration, strain ATCC BAA-747): 0.25 micrograms/mL
MIC A. baumannii CCUG57249 (Acinetobacter baumannii; 1:1 (wt:wt) combination with Rifampicin, MIC = total drug concentration, strain CCUG57249): 0.125 micrograms/mL
MIC A. baumannii NCTC 13423 (Acinetobacter baumannii; 1:1 (wt:wt) combination with Rifampicin, MIC = total drug concentration, strain NCTC 13423): 0.125 micrograms/mL
MIC A. baumannii NCTC 13424 (Acinetobacter baumannii; 1:1 (wt:wt) combination with Rifampicin, MIC = total drug concentration, strain NCTC 13424): 0.125 micrograms/mL
MIC A. baumannii NCTC 13424 (Acinetobacter baumannii; [3]): 1 micrograms/mL
MIC A. baumannii NCTC 13424 (Acinetobacter baumannii; [4]): 0.5 micrograms/mL
MIC A. baumannii NCTC 13424 (Acinetobacter baumannii; A. baumannii NCTC 13424, 1:1 combination with Azithromycin, total drug concentration): 1 micrograms/mL
MIC P. aeruginosa ATCC 27853 (Pseudomonas aeruginosa; 1:1 (wt:wt) combination with Rifampicin, MIC = total drug concentration, strain ATCC 27853): 1 micrograms/mL
MIC P. aeruginosa ATCC-47 (Pseudomonas aeruginosa; 1:1 (wt:wt) combination with Rifampicin, MIC = total drug concentration, strain ATCC-47): 0.25 micrograms/mL
MIC P. aeruginosa CCUG 59626 (Pseudomonas aeruginosa; 1:1 (wt:wt) combination with Rifampicin, MIC = total drug concentration, strain CCUG 59626): 0.25 micrograms/mL
MIC P. aeruginosa ATCC 10145 (Pseudomonas aeruginosa; [3]): 1 micrograms/mL
MIC P. aeruginosa ATCC 27853 (Pseudomonas aeruginosa; [4]): 0.125 micrograms/mL
MIC P. aeruginosa CCUG 59626 (Pseudomonas aeruginosa; [4]): 0.5 micrograms/mL
MIC P. aeruginosa CCUG 59626 (Pseudomonas aeruginosa; [5]): 1 micrograms/mL
MIC P. aeruginosa ATCC 10145 (Pseudomonas aeruginosa; P. aeruginosa ATCC 10145, 1:1 combination with Azithromycin, total drug concentration): 1 micrograms/mL
MIC P. aeruginosa ATCC 10145 (Pseudomonas aeruginosa; P. aeruginosa ATCC 10145, 1:1 combination with Novobiocin, total drug concentration): 0.5 micrograms/mL
MIC E. coli ATCC25922 (Escherichia coli; 1:1 (wt:wt) combination with Rifampicin, MIC = total drug concentration, strain ATCC25922): 0.125 micrograms/mL
MIC E. coli NCTC9001 (Escherichia coli; 1:1 (wt:wt) combination with Rifampicin, MIC = total drug concentration, strain NCTC9001): 0.125 micrograms/mL
MIC E. coli ATCC25922 (Escherichia coli; [3]): 0.125 micrograms/mL
MIC E. coli NCTC 13441 (Escherichia coli; [3]): 2 micrograms/mL
MIC E. coli ATCC25922 (Escherichia coli; [6]): ≤0.06 micrograms/mL
MIC E. coli CCUG 59342 (Escherichia coli; [6]): 1 micrograms/mL
MIC E. coli NCTC9001 (Escherichia coli; [6]): ≤0.06 micrograms/mL
MIC E. coli NCTC9001 (Escherichia coli; [5]): 8 micrograms/mL
MIC E. coli NCTC9001 (Escherichia coli; [7]): 16 microgram/mL
MIC E. coli ATCC25922 (Escherichia coli; E. coli ATCC25922, 1:1 combination with Azithromycin, total drug concentration): 0.125 micrograms/mL
MIC E. coli ATCC25922 (Escherichia coli; E. coli ATCC25922, 1:1 combination with Fusidic acid, total drug concentration): 1 micrograms/mL
MIC E. coli ATCC25922 (Escherichia coli; E. coli ATCC25922, 1:1 combination with Novobiocin, total drug concentration): 0.5 micrograms/mL
MIC E. coli ATCC25922 (Escherichia coli; E. coli ATCC25922, 1:1 combination with Oxacillin, total drug concentration): 8 micrograms/mL
MIC E. coli NCTC9001 (Escherichia coli; E. coli NCTC9001, 1:1 combination with Meropenem, total drug concentration): 0.5 micrograms/mL
MIC E. coli NCTC 13441 (Escherichia coli; E. coli NCTC 13441, 1:1 combination with Azithromycin, total drug concentration): 2 micrograms/mL
MIC E. coli NCTC 13441 (Escherichia coli; E. coli NCTC 13441, 1:1 combination with Novobiocin, total drug concentration): 0.5 micrograms/mL
MIC K. pneumoniae ATCC 4352 (Klebsiella pneumoniae [2]; 1:1 (wt:wt) combination with Rifampicin, MIC = total drug concentration, strain ATCC 4352): ≤0.06 micrograms/mL
MIC K. pneumoniae ATCC-BAA-2146 (Klebsiella pneumoniae [2]; 1:1 (wt:wt) combination with Rifampicin, MIC = total drug concentration, strain ATCC-BAA-2146): 0.5 micrograms/mL
MIC K. pneumoniae CCUG-59348 (Klebsiella pneumoniae [2]; 1:1 (wt:wt) combination with Rifampicin, MIC = total drug concentration, strain CCUG-59348): 1 micrograms/mL
MIC K. pneumoniae NCTC 13438 (Klebsiella pneumoniae [2]; 1:1 (wt:wt) combination with Rifampicin, MIC = total drug concentration, strain NCTC 13438): 0.5 micrograms/mL
MIC K. pneumoniae ATCC 4352 (Klebsiella pneumoniae [2]; [3]): ≤0.06 micrograms/mL
MIC K. pneumoniae CCUG 59349 (Klebsiella pneumoniae [2]; [3]): 4 micrograms/mL
MIC K. pneumoniae ATCC 4352 (Klebsiella pneumoniae [2]; [4]): ≤0.06 micrograms/mL
MIC K. pneumoniae ATCC BAA-1706 (Klebsiella pneumoniae [2]; [4]): 0.25 micrograms/mL
MIC K. pneumoniae CCUG 59348 (Klebsiella pneumoniae [2]; [6]): 32 micrograms/mL
MIC K. pneumoniae NCTC 13442 (Klebsiella pneumoniae [2]; [6]): 1 micrograms/mL
MIC K. pneumoniae CCUG 59348 (Klebsiella pneumoniae [2]; [5]): >32 micrograms/mL
MIC K. pneumoniae NCTC 13442 (Klebsiella pneumoniae [2]; [5]): 16 micrograms/mL
MIC K. pneumoniae CCUG 59348 (Klebsiella pneumoniae [2]; [7]): >32 microgram/mL
MIC K. pneumoniae NCTC 13442 (Klebsiella pneumoniae [2]; [7]): 4 microgram/mL
MIC K. pneumoniae ATCC 4352 (Klebsiella pneumoniae [2]; K. pneumoniae ATCC4352, 1:1 combination with Azithromycin, total drug concentration): 0.125 micrograms/mL
MIC K. pneumoniae ATCC 4352 (Klebsiella pneumoniae [2]; K. pneumoniae ATCC4352, 1:1 combination with Fusidic acid, total drug concentration): 0.5 micrograms/mL
MIC K. pneumoniae ATCC 4352 (Klebsiella pneumoniae [2]; K. pneumoniae ATCC4352, 1:1 combination with Novobiocin, total drug concentration): 0.125 micrograms/mL
MIC K. pneumoniae ATCC BAA-1706 (Klebsiella pneumoniae [2]; K. pneumoniae ATCC BAA-1706, 1:1 combination with Meropenem, total drug concentration): 4 micrograms/mL
MIC K. pneumoniae CCUG 59348 (Klebsiella pneumoniae [2]; K. pneumoniae CCUG 59348, 1:1 combination with Meropenem, total drug concentration): >32 micrograms/mL
MIC K. pneumoniae CCUG 59349 (Klebsiella pneumoniae [2]; K. pneumoniae CCUG 59349, 1:1 combination with Azithromycin, total drug concentration): 4 micrograms/mL
MIC K. pneumoniae CCUG 59349 (Klebsiella pneumoniae [2]; K. pneumoniae CCUG 59349, 1:1 combination with Novobiocin, total drug concentration): 1 micrograms/mL
MIC K. pneumoniae NCTC 13442 (Klebsiella pneumoniae [2]; K. pneumoniae NCTC 13442, 1:1 combination with Meropenem, total drug concentration): 16 micrograms/mL
MIC K. pneumoniae ATCC-BAA-2146 (Klebsiella pneumoniae [2]; [8]): 0.5 micrograms/mL
MIC K. pneumoniae CCUG-59348 (Klebsiella pneumoniae [2]; [8]): 1 micrograms/mL
MIC K. pneumoniae NCTC 13438 (Klebsiella pneumoniae [2]; [8]): 0.5 micrograms/mL
MIC K. pneumoniae ATCC-BAA-2146 (Klebsiella pneumoniae [2]; [9]): 0.5 micrograms/mL
MIC K. pneumoniae CCUG-59348 (Klebsiella pneumoniae [2]; [9]): 1 micrograms/mL
MIC K. pneumoniae NCTC 13438 (Klebsiella pneumoniae [2]; [9]): 0.5 micrograms/mL
